Read-outs that look alike come from different tables or passages of the source.
Experiments:
Pyricularia oryzae = experiment: microbe, parasite or virus in culture; format: cell-based; conditions: read-out: Growth Inhibition P.o (12.5)
wheat powdery mildew [1] = experiment: Permeable mobility fungicidal effect test in leaf section of wheat powdery mildew (Test Example 4); format: in vivo
Protocol: In the test example 4, permeable mobility fungicidal effect test was performedon the leaf section of wheat powdery mildew with regard to the compounds I-1 to 27 according to the present invention and the comparative compounds (a) to (d), and (m-1) to (m-3) with the method described later. The compound in the form of a wettable powder obtained by Formulation 2 or the like was diluted and suspended with water to a predetermined concentration (200mg/l), and 0.5 µl of the suspension was applied to a 2 to 3 cm leaf portion from the root of the three leaves of the 4th to 4.5th leaf period wheat (variety: Abukumawase) cultured by using a square plastic pot (size: 6.4 cm x 6.4 cm). After these wheat leaves were subject to still standing in a glass house (temperature: 20 to 24C, relative humidity: 20 to 70 RH) for one day, the spores of wheat powdery mildew were inoculated over the leaves by sprinkling the same with a brush from an infected leaf, a disease was contracted in the same glass house. The length of a non-contracted area generated from the applied portion to the direction of the leaf top was measured, and a relative mobility to the compound (m-2) was calculated with the following calculation […] by using the comparative compound (m-2) as a standard compound. (Equation 4) Relative mobility = (Length of non-contracted area in each chemical section (cm)/Length of non-contracted area of compound (m-2) (cm)) [formula]

Septoria tritici = experiment: Antifungal activity test against various pathogenic fungi, hypha extension on PDA plates (Test Example 3); format: cell-based; conditions: Zymoseptoria tritici, read-out: Growth Inhibition S.t (100)
Microdochium nivale = experiment: as above; format: cell-based; conditions: read-out: Growth Inhibition M.n (3.2)
Leptosphaeria nodorum = experiment: as above; format: cell-based; conditions: Parastagonospora nodorum, read-out: Growth Inhibition L.n (0.8)
cucumber powdery mildew = experiment: Test of control effect on cucumber powdery mildew (Test Example 2); format: in vivo; conditions: wettable powder 100 mg/l, 100 liters/10 a, sprinkled on cucumbers (Sagamihanpakufushinari) before inoculation, examined 9th to 14th day after inoculation; for pest or weed control at 100 µg/mL: Cucumis sativus
Protocol: The wettable powders formulated by using each of the compounds I-1 to 27 according to the present invention and the comparative compounds (a) to (d), (m-1) and (m-3) were each diluted and suspended with water to a predetermined concentration (100 mg/l), the suspension was sprinkled over the first to the second leaf period cucumbers (variety: "[…]") cultivated by using a square plastic pot (size: 6. 4 cm x 6. 4 cm) in a rate of 100 liters/10 a (ares). After the sprinkled leaves were air-dried, the spores were inoculated over the leaves by sprinkling the same with a brush from an infected leaf, a disease was contracted in a glass house (temperature: 20 to 24°C, relative humidity: 20 to 70 RH). On the 9th to 14th day after the inoculation, the infection degree was examined according to the following scale and the control value of each compound was calculated by the following calculation equation 2: [table] (Equation 2) Control value = (1 - infection degree of treated zone/infection degree of untreated zone) x 100 (%) [formula] The control values of each compound are shown in Table 9.

wheat powdery mildew [2] = experiment: Test of control effect on wheat powdery mildew (Test Example 1); format: in vivo; conditions: wettable powder 125 mg/l, 100 liters/10 a, sprinkled on wheat seedlings (Nourin 64) before inoculation, examined 9th to 14th day after inoculation; for pest or weed control at 125 µg/mL: Triticum aestivum
Protocol: Wettable powders were prepared from compounds of the present invention I-1 to I-27 and comparative compounds (a) to (d) , (m-1) and (m-3). The obtained wettable powder was diluted and suspended with water to provide the predetermined concentration (125 mg/l), and was sprinkled onto seedlings of wheat (variety: "Nourin 64") at the first to the second leaf period which were cultivated using square plastic pots (size: 6.4 cm x 6.4 cm) in a rate of 100 liters/10 a (ares). After drying the sprinkled leaves with air, a suspension of wheat powdery mildew spores taken from infected leaves was inoculated by spraying onto the sprinkled leaves. They were supervised in a green house (temperature: 20 to 24°C, relative humidity: 20 to 70 RH). On the 9th to 14th day after the inoculation, the infection degree was examined according to the following scale and the control value of each compound was calculated by the following calculation equation 1. [table] (Equation 1) Control value = (1 - infection degree of treated zone/infection degree of untreated zone) x 100 (%) [formula] The control values of each compound are shown in Table 8.

Pyrenophora graminea = experiment: Antifungal activity test against various pathogenic fungi, hypha extension on PDA plates (Test Example 3); format: cell-based; conditions: read-out: Growth Inhibition P.g (12.5)
[3] = tested on: Pseudocercosporella herpotrichoides; experiment: as above; format: cell-based; conditions: Oculimacula yallundae, read-out: Growth Inhibition P.h (25)
Rhynchosporium secalis = experiment: as above; format: cell-based; conditions: read-out: Growth Inhibition R.s (100)
Botrytis cinerea = experiment: as above; format: cell-based; conditions: read-out: Growth Inhibition B.c (1.6)
Venturia inaequalis = experiment: as above; format: cell-based; conditions: read-out: Growth Inhibition V.i (3.2)
[4] = length of non-contracted area relative to compound (m-2), 0.5 µl of 200 mg/l suspension applied to wheat leaf (Abukumawase), inoculated after one day
[5] = Septoria tritici, 100 ppm in PDA culture medium, cultured 1 to 7 days
[6] = 3.2 ppm in PDA culture medium, cultured 1 to 7 days
[7] = Leptosphaeria nodorum, 0.8 ppm in PDA culture medium, cultured 1 to 7 days
[8] = 12.5 ppm in PDA culture medium, cultured 1 to 7 days
[9] = Pseudocercosporella herpotrichoides, 25 ppm in PDA culture medium, cultured 1 to 7 days
[10] = 100 ppm in PDA culture medium, cultured 1 to 7 days
[11] = 1.6 ppm in PDA culture medium, cultured 1 to 7 days

Structure (SMILES): CC(Cc1ccc(OC(F)(F)F)c(F)c1)CN(C)Cc1ccc(Cl)nc1 (stereo not drawn) [Compound I-17, 6-chloro-N-[3-(3-fluoro-4-trifluoromethoxyphenyl)-2-methylpropyl]-N-methyl-3-pyridylmethylamine]
- inhibition at 12.5 ppm (Pyricularia oryzae): 70 to 90%
- Relative Mobility (wheat powdery mildew [1]; [4]): 10
- inhibition at 100 ppm (Septoria tritici; [5]): 70 to 90%
- inhibition at 3.2 ppm (Microdochium nivale; [6]): > 90%
- inhibition at 0.8 ppm (Leptosphaeria nodorum; [7]): > 90%
- pest or weed control at 100 µg/mL (cucumber powdery mildew): 100%
- pest or weed control at 125 µg/mL (wheat powdery mildew [2]): 100%
- inhibition at 12.5 ppm (Pyrenophora graminea; [8]): 70 to 90%
- inhibition at 25 ppm [3, 9]: > 90%
- inhibition at 100 ppm (Rhynchosporium secalis; [10]): > 90%
- inhibition at 1.6 ppm (Botrytis cinerea; [11]): > 90%
- inhibition at 3.2 ppm (Venturia inaequalis; [6]): 70 to 90%

Structure (SMILES): CC(Cc1cc(F)c(OC(F)(F)F)c(F)c1)CN(C)Cc1ccc(Cl)nc1 (stereo not drawn) [Compound I-20, 6-chloro-N-[3-(3,5-difluoro-4-trifluoromethoxyphenyl)-2-methylpropyl]-N-methyl-3-pyridylmethylamine]
- inhibition at 12.5 ppm (Pyricularia oryzae): 70 to 90%
- Relative Mobility (wheat powdery mildew [1]; [4]): 9
- inhibition at 100 ppm (Septoria tritici; [5]): 70 to 90%
- inhibition at 3.2 ppm (Microdochium nivale; [6]): 70 to 90%
- inhibition at 0.8 ppm (Leptosphaeria nodorum; [7]): > 90%
- pest or weed control at 100 µg/mL (cucumber powdery mildew): 100%
- pest or weed control at 125 µg/mL (wheat powdery mildew [2]): 100%
- inhibition at 12.5 ppm (Pyrenophora graminea; [8]): 70 to 90%
- inhibition at 25 ppm [3, 9]: > 90%
- inhibition at 100 ppm (Rhynchosporium secalis; [10]): 70 to 90%
- inhibition at 1.6 ppm (Botrytis cinerea; [11]): > 90%
- inhibition at 3.2 ppm (Venturia inaequalis; [6]): 70 to 90%

Structure (SMILES): CC(Cc1cc(F)cc(Cl)c1)CN(C)Cc1ccc(Cl)nc1 (stereo not drawn) [Compound I-21, 6-chloro-N-[3-(3-chloro-5-fluorophenyl)-2-methylpropyl] -N-methyl-3-pyridylmethylamine]
- inhibition at 12.5 ppm (Pyricularia oryzae): 70 to 90%
- Relative Mobility (wheat powdery mildew [1]; [4]): 9
- inhibition at 100 ppm (Septoria tritici; [5]): 70 to 90%
- inhibition at 3.2 ppm (Microdochium nivale; [6]): 70 to 90%
- inhibition at 0.8 ppm (Leptosphaeria nodorum; [7]): > 90%
- pest or weed control at 100 µg/mL (cucumber powdery mildew): 100%
- pest or weed control at 125 µg/mL (wheat powdery mildew [2]): 100%
- inhibition at 12.5 ppm (Pyrenophora graminea; [8]): > 90%
- inhibition at 25 ppm [3, 9]: > 90%
- inhibition at 100 ppm (Rhynchosporium secalis; [10]): > 90%
- inhibition at 1.6 ppm (Botrytis cinerea; [11]): > 90%
- inhibition at 3.2 ppm (Venturia inaequalis; [6]): 70 to 90%

Structure (SMILES): CC(Cc1ccc2c(c1)OC(F)(F)O2)CN(C)Cc1ccc(Cl)nc1 (stereo not drawn) [Compound I-24]
- inhibition at 12.5 ppm (Pyricularia oryzae): 70 to 90%
- Relative Mobility (wheat powdery mildew [1]; 24 h, 200 ug/mL): 6
- inhibition at 100 ppm (Septoria tritici): 70 to 90%
- inhibition at 3.2 ppm (Microdochium nivale): 70 to 90%
- inhibition at 0.8 ppm (Leptosphaeria nodorum): > 90%
- Control Value (cucumber powdery mildew): 100%
- Control Value (wheat powdery mildew [2]): 100%
- inhibition at 12.5 ppm (Pyrenophora graminea): > 90%
- inhibition at 25 ppm [3]: > 90%
- inhibition at 100 ppm (Rhynchosporium secalis): > 90%
- inhibition at 1.6 ppm (Botrytis cinerea): 70 to 90%
- inhibition at 3.2 ppm (Venturia inaequalis): 70 to 90%

Reference: patent EP1375483A1, “6-CHLORO-3-PYRIDYLMETHYLPROPYLAMINE DERIVATIVES, PREPARATION PROCESS THEREOF AND BACTERICIDES” (KUREHA KAGAKU KOGYO KABUSHIKI KAISHA, priority 2001, dated 2001)
